For 28 molecules, IC50 results are on record in US9199946B2, “Pyrimidinone carboxamide inhibitors of endothelial lipase” (BRISTOL-MYERS SQUIBB COMPANY, priority 2012, dated 2015).

Some results are limits rather than exact numbers.

The target of one assay is T1, Endothelial lipase (EL) (Homo sapiens, UniProt Q9Y5X9).
T1 construct: HT-1080 cells, which were transformed by RAGE technology (Athersys) to overexpress endogenous EL; endogenous in cells; conditioned medium used as the enzyme source
T1 sequence (Q9Y5X9 21-500): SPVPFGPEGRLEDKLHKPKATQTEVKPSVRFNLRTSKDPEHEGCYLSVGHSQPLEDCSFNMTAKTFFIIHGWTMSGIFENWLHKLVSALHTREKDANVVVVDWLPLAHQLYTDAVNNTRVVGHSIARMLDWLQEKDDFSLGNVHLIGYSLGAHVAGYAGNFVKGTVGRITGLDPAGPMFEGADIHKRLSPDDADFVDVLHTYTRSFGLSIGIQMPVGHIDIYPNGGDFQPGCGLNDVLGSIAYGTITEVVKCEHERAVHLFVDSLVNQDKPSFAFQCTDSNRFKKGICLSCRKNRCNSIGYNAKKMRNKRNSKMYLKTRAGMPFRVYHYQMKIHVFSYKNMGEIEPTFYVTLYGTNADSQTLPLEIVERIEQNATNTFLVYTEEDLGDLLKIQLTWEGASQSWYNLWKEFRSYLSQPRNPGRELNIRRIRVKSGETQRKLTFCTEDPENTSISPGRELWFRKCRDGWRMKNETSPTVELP
In words: Endothelial lipase (EL) enzymatic assay with fluorescent substrate A10070 in DMPG vesicles. Conditions: conditioned media from HT-1080 cells overexpressing endogenous EL; 20 min preincubation at 37° C.; read-out: EL IC50. The assay is classed as biochemical. A digest of the protocol: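 EL activity was followed as a fluorescence rate (488/530 nm, reads every 20 s for 10 min, linear slope) on A10070 doped at 0.05 mole fraction into sonicated DMPG vesicles. Compound was first incubated 20 min at 37 °C, pH 8.0 HEPES/CaCl2 buffer, with conditioned media from EL-overexpressing HT-1080 cells.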
The term IC50 denotes the point on the concentration scale where inhibition reaches its midpoint. Turning to `O=C(O)Cn1c(=O)[nH]c(C(=O)N[C@H]2CC[C@@H](c3ccccc3)CC2)c(O)c1=O` [Example 267, 2-(5-Hydroxy-2,6-dioxo-4-((cis-4-phenylcyclohexyl)carbamoyl)-2,3-dihydropyrimidin-1(6H)-yl)acetic acid], the IC50 was 1.42 µM.
On the same count and under the same terms, with `O=C(Nc1ccccc1)N[C@H]1CC[C@@H](NC(=O)c2[nH]c(=O)[nH]c(=O)c2O)CC1` [Example 280, 5-hydroxy-2,6-dioxo-N-(cis-4-(3-phenylureido)cyclohexyl)-1,2,3,6-tetrahydropyrimidine-4-carboxamide] the figure was 3.14 µM.
Turning to `O=C(N[C@H]1CC[C@@H](NC(=O)c2[nH]c(=O)[nH]c(=O)c2O)CC1)OCc1ccccc1` [Example 281, benzyl cis-4-(5-hydroxy-2,6-dioxo-1,2,3,6-tetrahydropyrimidine-4-carboxamido)cyclohexylcarbamate], the concentration for half-maximal inhibition (IC50) was found to be 0.875 µM.

Still in this assay, the particulars now being: range observed in the EL assay; read-out: EL IC50 values.
`O=C(N[C@H]1CCCc2c1cccc2C(F)(F)F)c1[nH]c(=O)[nH]c(=O)c1O` [Example 266, (S)-5-hydroxy-2,6-dioxo-N-(5-(trifluoromethyl)-1,2,3,4-tetrahydronaphthalen-1-yl)-1,2,3,6-tetrahydropyrimidine-4-carboxamide]: the IC50 was no more than 10 µM.
Still for that read-out and setting: the figure for `O=C(O)Cn1c(=O)[nH]c(C(=O)N[C@H]2CC[C@@H](c3ccccc3)CC2)c(O)c1=O` [Example 267, 2-(5-Hydroxy-2,6-dioxo-4-((cis-4-phenylcyclohexyl)carbamoyl)-2,3-dihydropyrimidin-1(6H)-yl)acetic acid] is no more than 10 µM; for `O=C(Cn1c(=O)[nH]c(C(=O)N[C@H]2CC[C@@H](c3ccccc3)CC2)c(O)c1=O)N[C@H]1CC[C@@H](c2ccccc2)CC1` [Example 268, 5-Hydroxy-2,6-dioxo-1-(2-oxo-2-((cis-4-phenylcyclohexyl)amino)ethyl)-N-(cis-4-phenylcyclohexyl)-1,2,3,6-tetrahydropyrimidine-4-carboxamide] it is no more than 10 µM; for `O=C(N[C@H]1CC[C@@H](c2ccccc2)CC1)c1[nH]c(=O)n(CCO)c(=O)c1O` [Example 269, 5-Hydroxy-1-(2-hydroxyethyl)-2,6-dioxo-N-(cis-4-phenylcyclohexyl)-1,2,3,6-tetrahydropyrimidine-4-carboxamide] it is no more than 10 µM.
Still for that read-out and setting: with `O=C(N[C@H]1CC[C@@H](c2ccccc2)CC1)c1[nH]c(=O)n(CCCc2ccccc2)c(=O)c1O` [Example 270, 5-Hydroxy-2,6-dioxo-N-(cis-4-phenylcyclohexyl)-1-(3-phenylpropyl)-1,2,3,6-tetrahydropyrimidine-4-carboxamide] the figure was no more than 10 µM.
Still for that read-out and setting: with `O=C(N[C@@H]1CC[C@H](c2ccccc2)C1)c1[nH]c(=O)[nH]c(=O)c1O` [Example 271, 5-Hydroxy-2,6-dioxo-N-((1R,3S)-3-phenylcyclopentyl)-1,2,3,6-tetrahydropyrimidine-4-carboxamide] the figure was no more than 10 µM; with `O=C(N[C@@H]1CC[C@@H](c2ccccc2)C1)c1[nH]c(=O)[nH]c(=O)c1O` [Example 272, 5-hydroxy-2,6-dioxo-N-((1R,3R)-3-phenylcyclopentyl)-1,2,3,6-tetrahydropyrimidine-4-carboxamide], no more than 10 µM; with `O=C(N[C@H]1CC[C@@H](c2ccccc2)C1)c1[nH]c(=O)[nH]c(=O)c1O` [Example 273, 5-hydroxy-2,6-dioxo-N-((1S,3R)-3-phenylcyclopentyl)-1,2,3,6-tetrahydropyrimidine-4-carboxamide], no more than 10 µM.
`O=C(N[C@H]1CCN(c2ccccc2)C1)c1[nH]c(=O)[nH]c(=O)c1O` [Example 274, (S)-5-hydroxy-2,6-dioxo-N-(1-phenylpyrrolidin-3-yl)-1,2,3,6-tetrahydropyrimidine-4-carboxamide]: the IC50 was no more than 10 µM.
Same read-out and setting: with `O=C(N[C@H]1CC[C@H](c2ccccc2)C1)c1[nH]c(=O)[nH]c(=O)c1O` [Example 275, 5-hydroxy-2,6-dioxo-N-((1S,3S)-3-phenylcyclopentyl)-1,2,3,6-tetrahydropyrimidine-4-carboxamide] the figure was no more than 10 µM.
The same measure, in the same setting: the figure for `O=C(N[C@@H]1CCCc2ccccc21)c1[nH]c(=O)[nH]c(=O)c1O` [Example 276, (R)-5-hydroxy-2,6-dioxo-N-(1,2,3,4-tetrahydronaphthalen-1-yl)-1,2,3,6-tetrahydropyrimidine-4-carboxamide] is no more than 10 µM.
The same measure, in the same setting: with `O=C(N[C@H]1CCC[C@H](c2ccccc2)C1)c1[nH]c(=O)[nH]c(=O)c1O` [Example 277, 5-hydroxy-2,6-dioxo-N-((1S,3S)-3-phenylcyclohcxyl)-1,2,3,6-tetrahydropyrimidine-4-carboxamide] the figure was no more than 10 µM; with `O=C(N[C@@H]1CCC[C@@H](c2ccccc2)C1)c1[nH]c(=O)[nH]c(=O)c1O` [Example 278, 5-hydroxy-2,6-dioxo-N-((1R,3R)-3-phenylcyclohexyl)-1,2,3,6-tetrahydropyrimidine-4-carboxamide], no more than 10 µM; with `O=C(Cc1ccccc1)N[C@H]1CC[C@@H](NC(=O)c2[nH]c(=O)[nH]c(=O)c2O)CC1` [Example 279, 5-hydroxy-2,6-dioxo-N-(cis-4-(2-phenylacetamido)cyclohexyl)-1,2,3,6-tetrahydropyrimidine-4-carboxamide], no more than 10 µM.
As for `O=C(Nc1ccccc1)N[C@H]1CC[C@@H](NC(=O)c2[nH]c(=O)[nH]c(=O)c2O)CC1` [Example 280, 5-hydroxy-2,6-dioxo-N-(cis-4-(3-phenylureido)cyclohexyl)-1,2,3,6-tetrahydropyrimidine-4-carboxamide], the IC50 was no more than 10 µM.
Still for that read-out and setting: with `O=C(N[C@H]1CC[C@@H](NC(=O)c2[nH]c(=O)[nH]c(=O)c2O)CC1)OCc1ccccc1` [Example 281, benzyl cis-4-(5-hydroxy-2,6-dioxo-1,2,3,6-tetrahydropyrimidine-4-carboxamido)cyclohexylcarbamate] the figure was no more than 10 µM; with `O=C(NC1CCC(c2cccc(OCc3ccccc3)c2)C1)c1[nH]c(=O)[nH]c(=O)c1O` (stereo not shown) [Example 282, N-(3-(3-(benzyloxy)phenyl)cyclopentyl)-5-hydroxy-2,6-dioxo-1,2,3,6-tetrahydropyrimidine-4-carboxamide], no more than 10 µM.
As for `O=C(NC1CCC(c2cnn(Cc3ccccc3)c2)C1)c1[nH]c(=O)[nH]c(=O)c1O` (stereo not shown) [Example 283, N-(3-(1-benzyl-1H-pyrazol-4-yl)cyclopentyl)-5-hydroxy-2,6-dioxo-1,2,3,6-tetrahydropyrimidine-4-carboxamide], the IC50 was no more than 10 µM.
Same read-out and setting: with `O=C(NC1CCCc2c(CCc3ccccc3)cccc21)c1[nH]c(=O)[nH]c(=O)c1O` (stereo not shown) [Example 284, 5-hydroxy-2,6-dioxo-N-(5-phenethyl-1,2,3,4-tetrahydronaphthalen-1-yl)-1,2,3,6-tetrahydropyrimidine-4-carboxamide] the figure was no more than 10 µM.
The same measure, in the same setting: with `O=C(NC1CCCc2c(-c3ccccc3)cccc21)c1[nH]c(=O)[nH]c(=O)c1O` (stereo not shown) [Example 285, 5-hydroxy-2,6-dioxo-N-(5-phenyl-1,2,3,4-tetrahydronaphthalen-1-yl)-1,2,3,6-tetrahydropyrimidine-4-carboxamide] the figure was no more than 10 µM.
For the molecule `O=C(N[C@@H]1CCCc2c(NCc3ccccc3)cccc21)c1[nH]c(=O)[nH]c(=O)c1O` [Example 286, (R)-N-(5-(benzylamino)-1,2,3,4-tetrahydronaphthalen-1-yl)-5-hydroxy-2,6-dioxo-1,2,3,6-tetrahydropyrimidine-4-carboxamide], the half-maximal inhibitory concentration (IC50) is no more than 10 µM.
Still for that read-out and setting: the figure for `O=C(NC1CCCc2c(NS(=O)(=O)c3ccccc3)cccc21)c1[nH]c(=O)[nH]c(=O)c1O` (stereo not shown) [Example 287, 5-hydroxy-2,6-dioxo-N-(5-(phenylsulfonamido)-1,2,3,4-tetrahydronaphthalen-1-yl)-1,2,3,6-tetrahydropyrimidine-4-carboxamide] is no more than 10 µM; for `O=C(Nc1ccc2c(c1)CCC[C@H]2NC(=O)c1[nH]c(=O)[nH]c(=O)c1O)c1ccccc1` [Example 288, (R)-N-(6-benzamido-1,2,3,4-tetrahydronaphthalen-1-yl)-5-hydroxy-2,6-dioxo-1,2,3,6-tetrahydropyrimidine-4-carboxamide] it is no more than 10 µM; for `O=C(N[C@H]1CC[C@H](C(=O)Nc2ccccc2)C1)c1[nH]c(=O)[nH]c(=O)c1O` [Example 290, 5-hydroxy-2,6-dioxo-N-((1S,3S)-3-(phenylcarbamoyl)cyclopentyl)-1,2,3,6-tetrahydropyrimidine-4-carboxamide] it is no more than 10 µM.
Still for that read-out and setting: the figure for `O=C(N[C@@H]1CCCc2c(OCC3CCCC3)cccc21)c1[nH]c(=O)[nH]c(=O)c1O` [Example 291, (R)-N-(5-(cyclopentylmethoxy)-1,2,3,4-tetrahydronaphthalen-1-yl)-5-hydroxy-2,6-dioxo-1,2,3,6-tetrahydropyrimidine-4-carboxamide] is no more than 10 µM.
Still for that read-out and setting: the figure for `COc1ccccc1C1CCC(NC(=O)c2[nH]c(=O)[nH]c(=O)c2O)C1` (stereo not shown) [Example 292, 5-hydroxy-N-(3-(2-methoxyphenyl)cyclopentyl)-2,6-dioxo-1,2,3,6-tetrahydropyrimidine-4 carboxamide] is no more than 10 µM.
For `CC(C)(C)COc1ccc(C2CCC(NC(=O)c3[nH]c(=O)[nH]c(=O)c3O)C2)cc1` (stereo not shown) [Example 293, 5-hydroxy-N-(3-(4-(neopentyloxy)phenyl)cyclopentyl)-2,6-dioxo-1,2,3,6-tetrahydropyrimidine-4-carboxamide], the IC50 is no more than 10 µM.
As to `CC(C)Oc1ccc(C2CCC(NC(=O)c3[nH]c(=O)[nH]c(=O)c3O)C2)cc1` (stereo not shown) [Example 294, 5-hydroxy-N-(3-(4-isopropoxyphenyl)cyclopentyl)-2,6-dioxo-1,2,3,6-tetrahydropyrimidine-4 carboxamide], the IC50 was no more than 10 µM.
